According to patent US9376436B2, “2-(pyridin-2yl)-1, 7-diaza-spiro [4.4] nonane-6-one compound as voltage-gated sodium channels modulators” (CONVERGENCE PHARMACEUTICALS LIMITED, priority 2011, dated 2016):
Where a name gives a salt, the structure may show the parent alone. Read-outs that look alike come from different tables or passages of the source.

Target: T1, hNaV1.7 (Homo sapiens, UniProt Q15858)
T1 construct: expressed in transfected cells; host or cells: HEK293
Test: QPatch NaV1.7 assay (whole-cell patch clamp, QPatch16x)
Assay type: cell-based
Conditions: HEK293-hNaV1.7 cells
Outline: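 Automated whole-cell recordings in hNaV1.7-expressing HEK293 cells, holding at either −90 mV (mostly closed channels) or the half-inactivation voltage. Compounds applied cumulatively at four concentrations for 120 s each; peak current on 20 ms depolarisation to 0 mV fitted by Hill equation to yield pIC50.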

[1] = holding voltage V1/2 SSI (half of channels inactivated), read-out: QP Nav1.7 SSI vhalf pIC50 (converted)
[2] = holding voltage −90 mV (most channels closed), read-out: QP Nav1.7 −90 mV pIC50 (converted)

T1 sequence (Q15858 whole entry): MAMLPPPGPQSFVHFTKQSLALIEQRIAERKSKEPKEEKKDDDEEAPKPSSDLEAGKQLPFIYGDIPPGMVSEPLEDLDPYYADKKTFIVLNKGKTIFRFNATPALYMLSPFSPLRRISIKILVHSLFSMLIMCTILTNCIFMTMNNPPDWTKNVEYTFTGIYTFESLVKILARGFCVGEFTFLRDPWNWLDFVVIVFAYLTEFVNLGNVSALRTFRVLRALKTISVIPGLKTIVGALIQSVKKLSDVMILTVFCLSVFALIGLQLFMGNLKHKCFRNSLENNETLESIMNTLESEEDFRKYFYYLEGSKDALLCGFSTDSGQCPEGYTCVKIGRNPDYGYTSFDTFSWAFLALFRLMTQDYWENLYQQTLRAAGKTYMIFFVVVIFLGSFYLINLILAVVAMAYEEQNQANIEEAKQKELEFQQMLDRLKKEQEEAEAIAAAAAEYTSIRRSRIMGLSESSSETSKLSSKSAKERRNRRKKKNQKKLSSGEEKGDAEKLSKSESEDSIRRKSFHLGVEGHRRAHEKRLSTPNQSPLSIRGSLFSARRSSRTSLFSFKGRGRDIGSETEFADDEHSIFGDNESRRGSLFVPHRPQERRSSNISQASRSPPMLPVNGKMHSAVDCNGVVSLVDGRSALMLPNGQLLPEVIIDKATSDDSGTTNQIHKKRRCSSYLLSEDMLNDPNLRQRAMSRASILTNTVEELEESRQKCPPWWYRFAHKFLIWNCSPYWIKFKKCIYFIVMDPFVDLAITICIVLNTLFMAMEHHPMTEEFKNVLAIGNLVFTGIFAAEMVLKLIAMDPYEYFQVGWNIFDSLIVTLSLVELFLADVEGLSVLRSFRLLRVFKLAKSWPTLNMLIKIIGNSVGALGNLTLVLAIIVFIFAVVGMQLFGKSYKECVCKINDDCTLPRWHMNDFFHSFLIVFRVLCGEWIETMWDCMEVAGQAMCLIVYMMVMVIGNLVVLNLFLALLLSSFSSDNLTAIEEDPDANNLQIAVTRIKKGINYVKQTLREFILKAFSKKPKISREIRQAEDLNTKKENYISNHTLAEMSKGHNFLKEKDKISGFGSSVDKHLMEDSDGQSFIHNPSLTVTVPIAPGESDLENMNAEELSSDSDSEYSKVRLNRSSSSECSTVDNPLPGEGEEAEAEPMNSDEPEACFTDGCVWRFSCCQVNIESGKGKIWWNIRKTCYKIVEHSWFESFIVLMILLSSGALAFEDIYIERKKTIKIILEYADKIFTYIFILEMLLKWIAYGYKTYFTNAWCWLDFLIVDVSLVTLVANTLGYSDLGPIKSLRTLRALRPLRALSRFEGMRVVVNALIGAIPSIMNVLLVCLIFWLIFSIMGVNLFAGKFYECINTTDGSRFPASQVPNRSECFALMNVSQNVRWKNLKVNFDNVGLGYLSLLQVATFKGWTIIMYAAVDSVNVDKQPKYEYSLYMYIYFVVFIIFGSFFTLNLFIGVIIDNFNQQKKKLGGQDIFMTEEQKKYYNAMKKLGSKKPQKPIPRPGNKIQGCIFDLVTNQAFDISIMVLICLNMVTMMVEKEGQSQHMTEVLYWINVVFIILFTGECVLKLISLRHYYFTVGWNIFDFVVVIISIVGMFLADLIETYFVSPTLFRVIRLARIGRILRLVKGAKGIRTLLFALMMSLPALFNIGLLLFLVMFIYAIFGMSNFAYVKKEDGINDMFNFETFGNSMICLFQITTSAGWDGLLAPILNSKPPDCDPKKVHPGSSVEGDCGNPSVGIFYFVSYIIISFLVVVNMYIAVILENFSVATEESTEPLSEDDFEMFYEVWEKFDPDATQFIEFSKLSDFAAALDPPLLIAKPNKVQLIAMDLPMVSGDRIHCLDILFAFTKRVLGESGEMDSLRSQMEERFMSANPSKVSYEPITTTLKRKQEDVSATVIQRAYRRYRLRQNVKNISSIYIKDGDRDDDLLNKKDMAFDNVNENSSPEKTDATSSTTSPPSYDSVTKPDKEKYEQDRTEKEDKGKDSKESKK

IC50 [1]	IC50 [2]	Structure (SMILES)
3.16 µM	100 µM	CN1CC[C@@]2(CC[C@@H](c3cc(-c4ccc(C(F)(F)F)cc4)c(F)cn3)N2)C1=O [Example 59, (2S,5S)-2-[5-Fluoro-4-[4-(trifluoromethyl)phenyl]-2-pyridyl]-7-methyl-1,7-diazaspiro[4.4]nonan-6-one hydrochloride]
3.98 µM	79.4 µM	CN1CC[C@]2(CC[C@@H](c3cc(-c4ccc(C(F)(F)F)cc4)c(F)cn3)N2)C1=O [Example 60, (2S,5R)-2-[5-Fluoro-4-[4-(trifluoromethyl)phenyl]-2-pyridyl]-7-methyl-1,7-diazaspiro[4.4]nonan-6-one hydrochloride]
6.31 µM	100 µM	CN1CC[C@]2(CC[C@H](c3cc(-c4ccc(C(F)(F)F)cc4)c(F)cn3)N2)C1=O [Example 61, (2R,5R)-2-[5-Fluoro-4-[4-(trifluoromethyl)phenyl]-2-pyridyl]-7-methyl-1,7-diazaspiro[4.4]nonan-6-one hydrochloride]
10 µM	126 µM	CN1CC[C@@]2(CC[C@H](c3cc(-c4ccc(F)cc4)ccn3)N2)C1=O [Example 66, (2R,5S)-2-[4-(4-Fluorophenyl)-2-pyridyl]-7-methyl-1,7-diazaspiro[4.4]nonan-6-one hydrochloride]
3.98 µM	31.6 µM	CN1CCC[C@@]2(CC[C@H](c3cc(-c4ccc(C(F)(F)F)cc4)ccn3)N2)C1=O [Example 67, (2R,5R)-7-Methyl-2-[4-(4-trifluoromethyl-phenyl)-pyridin-2-yl]-1,7-diaza-spiro[4.5]decan-6-one hydrochloride]
5.01 µM	25.1 µM	CN1CCC[C@@]2(CC[C@@H](c3cc(-c4ccc(C(F)(F)F)cc4)ccn3)N2)C1=O [Example 68, (2S,5R)-7-Methyl-2-[4-(4-trifluoromethyl-phenyl)-pyridin-2-yl]-1,7-diaza-spiro[4.5]decan-6-one hydrochloride]
7.94 µM	31.6 µM	CN1CCC[C@]2(CC[C@@H](c3cc(-c4ccc(C(F)(F)F)cc4)ccn3)N2)C1=O [Example 69, (2S,5S)-7-Methyl-2-[4-(4-trifluoromethyl-phenyl)-pyridin-2-yl]-1,7-diaza-spiro[4.5]decan-6-one hydrochloride]
1 µM	12.6 µM	CN1CCC[C@]2(CC[C@H](c3cc(-c4ccc(C(F)(F)F)cc4)ccn3)N2)C1=O [Example 70, (2R,5S)-7-Methyl-2-[4-(4-trifluoromethyl-phenyl)-pyridin-2-yl]-1,7-diaza-spiro[4.5]decan-6-one hydrochloride]

Structure (SMILES)	IC50 [1]	IC50 [2]
CN1CC[C@@]2(CC[C@H](c3cc(-c4ccc(C(F)(F)F)cc4)c(OC(C)(C)C)cn3)N2)C1=O [Example 62, (2R,5S)-2-[5-tert-Butoxy-4-[4-(trifluoromethyl)-phenyl]-2-pyridyl]-7-methyl-1,7-diazaspiro[4.4]nonan-6-one hydrochloride]	2 µM	79.4 µM
CN1CC[C@@]2(CC[C@@H](c3cc(-c4ccc(C(F)(F)F)cc4)c(OC(C)(C)C)cn3)N2)C1=O [Example 63, (2S,5S)-2-[5-tert-Butoxy-4-[4-(trifluoromethyl)-phenyl]-2-pyridyl]-7-methyl-1,7-diazaspiro[4.4]nonan-6-one hydrochloride]	10 µM	79.4 µM
CN1CC[C@]2(CC[C@@H](c3cc(-c4ccc(C(F)(F)F)cc4)c(OC(C)(C)C)cn3)N2)C1=O [Example 64, (2S,5R)-2-[5-tert-Butoxy-4-[4-(trifluoromethyl)-phenyl]-2-pyridyl]-7-methyl-1,7-diazaspiro[4.4]nonan-6-one hydrochloride]	3.16 µM	50.1 µM
CN1CC[C@]2(CC[C@H](c3cc(-c4ccc(C(F)(F)F)cc4)c(OC(C)(C)C)cn3)N2)C1=O [Example 65, (2R,5R)-2-[5-tert-Butoxy-4-[4-(trifluoromethyl)-phenyl]-2-pyridyl]-7-methyl-1,7-diazaspiro[4.4]nonan-6-one hydrochloride]	1.58 µM	31.6 µM
